pIC50: −log10 of the molar value. Values after ≈ are worked out from the molar mass of the structure shown. Like-named read-outs stand apart in the source and are kept apart here.
Experiments:
[1] = molecular target: T1, S. aureus Uridine-diphosphate-N-acetvimuramoyl: L-alanine lipase, MurC (Staphylococcus aureus, UniProt Q2FXJ0); assay: biochemical; conditions: (S) S. aureus enzyme; for IC50: read-out: MurC IC50 (converted)
T1 sequence (Q2FXJ0 1-437): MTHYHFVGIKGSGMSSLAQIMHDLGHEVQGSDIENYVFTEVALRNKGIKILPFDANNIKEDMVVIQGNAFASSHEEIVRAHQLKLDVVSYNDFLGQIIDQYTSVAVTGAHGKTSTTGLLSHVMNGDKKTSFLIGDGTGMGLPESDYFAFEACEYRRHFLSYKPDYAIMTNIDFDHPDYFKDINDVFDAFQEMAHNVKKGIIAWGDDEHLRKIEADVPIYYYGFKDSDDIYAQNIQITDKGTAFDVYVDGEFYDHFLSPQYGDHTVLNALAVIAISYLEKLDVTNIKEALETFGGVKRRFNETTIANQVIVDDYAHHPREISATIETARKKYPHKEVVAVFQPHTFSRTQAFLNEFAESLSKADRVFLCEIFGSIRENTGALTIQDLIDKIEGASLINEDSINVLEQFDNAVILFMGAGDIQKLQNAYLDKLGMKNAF
In short: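 MurC assay: enzyme (E. coli 100 μg/mL, S. aureus 70 μg/mL stock) with L-Ala and test compound, pre-incubated 10 min at 23 °C, then UDP-MurNac added, 10 min at 37 °C. Phosphate released detected by malachite green–molybdate at 660 nm; IC50 by linear regression.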

[2] = molecular target: T2, S. aureus Uridine-diphosphate-N-acetylmuramoyl-L-alanine: D-glutamate liease, MurD (Staphylococcus aureus, UniProt Q2FZ92); assay: biochemical; conditions: (S) S. aureus enzyme
T2 sequence (Q2FZ92 1-449): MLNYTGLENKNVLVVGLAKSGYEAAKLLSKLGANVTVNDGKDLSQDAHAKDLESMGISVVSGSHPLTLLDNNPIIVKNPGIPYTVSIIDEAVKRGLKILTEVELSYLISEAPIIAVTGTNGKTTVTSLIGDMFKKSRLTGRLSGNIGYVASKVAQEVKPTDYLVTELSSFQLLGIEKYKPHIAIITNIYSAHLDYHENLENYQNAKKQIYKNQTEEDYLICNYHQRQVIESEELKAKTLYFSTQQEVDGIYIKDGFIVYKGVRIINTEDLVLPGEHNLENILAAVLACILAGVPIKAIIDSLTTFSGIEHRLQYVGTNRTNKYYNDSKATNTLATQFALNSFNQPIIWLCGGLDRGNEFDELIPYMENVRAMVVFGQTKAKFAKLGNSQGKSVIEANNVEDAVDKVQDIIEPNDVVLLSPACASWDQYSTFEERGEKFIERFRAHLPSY
In short: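 MurD, which catalyses the fourth step of cell wall biosynthesis, was tested for inhibition by compounds. Compounds were made up as 10 mg/mL DMSO stocks and diluted to 100 μg/mL in 50 mM Tris/HCl, pH 8.5.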

staphylococci = assay: Minimum inhibitory concentration, microdilution broth method, staphylococci; format: cell-based; conditions: Mueller-Hinton broth, 18-22 hours at 35° C.; for MIC: Staphylococcus aureus
In short: (§1)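 Organisms, including methicillin-, penicillin- and/or vancomycin-resistant clinical isolates, tested by NCCLS M7-A5 microdilution. Medium: Mueller-Hinton broth for staphylococci and enterococci, supplemented with 5% lysed horse blood for streptococci.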

enterococci = assay: Minimum inhibitory concentration, microdilution broth method, enterococci; format: cell-based; conditions: Mueller-Hinton broth, 18-22 hours at 35° C.; for MIC: Enterococcus faecalis
In short: as §1

Streptococci = assay: Minimum inhibitory concentration, microdilution broth method, streptococci; format: cell-based; conditions: Mueller-Hinton broth with 5% horse blood, 18-22 hours at 35° C.; for MIC: S. pneumo GC 1894
In short: as §1

[3] = S. aureus GC 1131, read-out: MIC S. aureus GC 1131
[4] = S. aureus GC 4543, read-out: MIC S. aureus GC 4543
[5] = E. faecalis GC 2242, read-out: MIC E. faecalis GC 2242
[6] = E. faecalis GC 4555, read-out: MIC E. faecalis GC 4555

Cc1cc(/C=C2\OC(=O)C(c3cc(Cl)cc(Cl)c3)=C2O)ccc1-c1ccccc1C(F)(F)F [Example 27]
IC50 [1]: > 50.9 µM
pIC50 [2]: 4.31
MIC (staphylococci; [3]): 0.5 µg/mL (≈ 1.02 µM)
MIC (staphylococci; [4]): 0.5 µg/mL (≈ 1.02 µM)
MIC (enterococci; [5]): 1 µg/mL (≈ 2.04 µM)
MIC (enterococci; [6]): 2 µg/mL (≈ 4.07 µM)
MIC (Streptococci): 0.5 µg/mL (≈ 1.02 µM)

Cc1ccc(C=C2OC(=O)C(c3ccc(Cl)cc3)=C2O)s1 [Example 14]
MurC IC50 [1]: 22 µg/mL
MurD IC50 [2]: >25 (E); >25 (S) μg/mL
MIC S. aureus GC 1131 (staphylococci; S. aureus GC 1131): >128 µg/mL
MIC S. aureus GC 4543 (staphylococci; S. aureus GC 4543): >128 µg/mL
MIC E. faecalis GC 2242 (enterococci; E. faecalis GC 2242): 64 µg/mL (≈ 201 µM)
MIC E. faecalis GC 4555 (enterococci; E. faecalis GC 4555): 4 µg/mL (≈ 12.5 µM)
MIC S. pneumo GC 1894 (Streptococci): 64 µg/mL (≈ 201 µM)

O=C1O/C(=C\c2ccccc2-c2ccc(Cl)cc2)C(O)=C1c1ccc(Cl)cc1 [Example 137]
IC50 [1]: 56.2 µM
pIC50 [2]: 4.36
MIC (staphylococci; [3]): 8 µg/mL (≈ 19.5 µM)
MIC (staphylococci; [4]): 8 µg/mL (≈ 19.5 µM)
MIC (enterococci; [5]): 4 µg/mL (≈ 9.77 µM)
MIC (enterococci; [6]): 4 µg/mL (≈ 9.77 µM)
MIC (Streptococci): 2 µg/mL (≈ 4.89 µM)

Source: patent US7495027B2, “3-aryl-4-hydroxyfuranone compounds and the human and animal health use thereof” (Wyeth, priority 2003, dated 2009)
